In assay [1] the target is T1, Melanoma-associated antigen 4 (Homo sapiens, UniProt P43358).
T1 sequence (P43358 whole entry): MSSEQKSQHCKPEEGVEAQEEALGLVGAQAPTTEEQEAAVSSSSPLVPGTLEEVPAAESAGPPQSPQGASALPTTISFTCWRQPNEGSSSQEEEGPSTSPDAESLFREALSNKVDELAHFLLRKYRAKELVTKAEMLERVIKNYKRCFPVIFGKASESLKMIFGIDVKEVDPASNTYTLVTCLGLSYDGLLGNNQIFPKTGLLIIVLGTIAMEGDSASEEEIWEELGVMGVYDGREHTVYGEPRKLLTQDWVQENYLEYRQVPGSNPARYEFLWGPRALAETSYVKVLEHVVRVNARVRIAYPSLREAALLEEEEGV
Description: Inhibition of Eu-W1024 streptavidin-labeled MAGEA4 (unknown origin) expressed in Escherichia coli BL21-(DE3) incubated for 30 to 60 mins by LANCE TR-FRET assay. (In TR-FRET formats the signal depends on donor and acceptor labels being close together.)

In assay [2] the target is T1, Melanoma-associated antigen 4. Kind of assay: Binding affinity to MAGEA4 (unknown origin) expressed in Escherichia coli BL21-(DE3) by isothermal titration calorimetry. (ITC needs no label: the signal is the heat of the interaction.)
Assay [3] has the same target. Description: Binding affinity to recombinant N-terminal His-tagged MAGEA4-MH domain (unknown origin) expressed in Escherichia coli BL21-(DE3) by isothermal titration calorimetry.
Assay [4] can be described thus: Inhibition of biotinylated Eu-W1024 streptavidin-labeled MAGEA4 (unknown origin) expressed in Escherichia coli BL21-(DE3)/GST-tagged RAD18 (unknown origin) (267 to 402 residues) interaction using Ulight-anti-GST antibody incubated for 30 to 60 mins by LANCE TR-FRET assay. Also on record: species or system Homo sapiens.
For another assay, the species on record is Homo sapiens. Kind of assay: Binding affinity to recombinant N-terminal His-tagged MAGEA4-MH domain Y5A mutant (unknown origin) expressed in Escherichia coli BL21-(DE3) assessed as inhibition of protein stabilization at 10 uM by TR-FRET assay.
Assay [5] concerns the target T2, Melanoma-associated antigen 4 (Homo sapiens) (UniProt P43358).
T2 sequence (whole entry): T1 sequence (P43358 whole entry)
Description: Binding affinity to recombinant N-terminal His-tagged MAGEA4-MH domain (unknown origin) expressed in Escherichia coli BL21-(DE3) assessed as protection in trypsin-induced MAGEA4 protein degradation incubated for 1 hr by proteolysis based SDS-PAGE analysis.

The source made the active and inactive calls. The rule behind the calls is not given here. Positions of bridges follow the written chain, without caps; N, C: chain ends. Residues, ends and D or L forms follow the SMILES beside them. A value given as a limit tells only on which side of the number the result lay.

For `CC(C)C[C@@H]1NC(=O)[C@H](CCCNC(=N)N)NC(=O)[C@H](CS)NC(=O)[C@H](Cc2ccc(O)cc2)NC(=O)CSC[C@@H](C(N)=O)NC(=O)[C@H](Cc2ccc(O)cc2)NC(=O)[C@H]([C@@H](C)O)NC(=O)[C@H](CCCNC(=N)N)NC(=O)[C@H]2CCCN2C(=O)[C@H](CC(C)C)NC(=O)[C@H](Cc2cnc[nH]2)NC(=O)[C@H](Cc2ccc(O)cc2)NC(=O)[C@H](CC(=O)O)NC(=O)[C@H](Cc2ccc(O)cc2)NC1=O`, the half-inhibitory concentration (IC50) in assay [1] is less than 0.001 µM; in assay [4] it was less than 0.01 µM. The equilibrium dissociation constant (Kd) in assay [2] was 0.0118 µM; in assay [3], 0.0065 µM.
Take `CC(C)C[C@@H]1NC(=O)[C@H]([C@H](C)O)NC(=O)[C@H](C(C)C)NC(=O)[C@H](Cc2ccc(O)cc2)NC(=O)CSC[C@@H](C(N)=O)NC(=O)[C@H]([C@@H](C)O)NC(=O)[C@H]2CCCN2C(=O)[C@H](Cc2ccccc2)NC(=O)[C@H](CCCNC(=N)N)NC(=O)[C@H](CC(N)=O)NC(=O)[C@H](Cc2ccccc2)NC(=O)[C@H]([C@@H](C)O)NC(=O)[C@H](CCCNC(=N)N)NC1=O`: the figures for the half-inhibitory concentration (IC50) in assay [1] and in assay [4] were 0.00126 µM and 0.0135 µM, respectively. Further, the dissociation constant Kd in assay [2] is 0.0555 µM; in assay [3] it was 0.0474 µM.
With `CC[C@H](C)[C@@H]1NC(=O)[C@H](Cc2ccc(O)cc2)NC(=O)CSC[C@@H](C(N)=O)NC(=O)[C@H](CC(N)=O)NC(=O)[C@H](Cc2cnc[nH]2)NC(=O)[C@H](Cc2ccc(O)cc2)NC(=O)[C@H](CC(=O)O)NC(=O)[C@H](C)NC(=O)[C@H](CC(C)C)NC(=O)[C@H](CCCNC(=N)N)NC1=O` ({CH2CO}-YIRLADYHNC-NH2; thioether N-10), in the assay listed under Homo sapiens, the result was Active.
In turn, Ac-YIRLYDYHNC-NH2 had a half-maximal inhibitory concentration (IC50) in assay [1] of less than 10 µM. Further, the result in assay [5] was Active.

The IC50 is the concentration that inhibits the measured activity by half. A higher IC50 goes with lower potency. One may read the Kd as a measure of binding affinity in units of concentration.
